The values below come from the OligoGym collection.

The series concerns the target PRNP. In words: mouse, dose not given. The conditions noted are these: ASO.

HELM strings list units from the 5' end as sugar, base in round brackets, then linkage (d deoxyribose, r ribose, m 2'-O-methyl, p phosphodiester). Strings are as the collection lists them; they lack the last nucleoside at the 3' end of the tested compound. [moe] = 2'-O-(2-methoxyethyl) (MOE); [sp] = phosphorothioate linkage; [m5C] = 5-methylcytosine

Consider “RNA1{[moe](T)[sp].[moe](G)p.[moe](G)p.[moe](T)p.[moe](T)[sp].d(A)[sp].d([m5C])[sp].d(A)[sp].d(T)[sp].d(A)[sp].d(A)[sp].d(T)[sp].d(G)[sp].d(T)[sp].d(T)[sp].[moe]([m5C])p.[moe](A)p.[moe](T)[sp].[moe](T)}$$$$ (last 3' nucleoside missing)”, for which the 3 h FOB score is 4 score 0-7.

“RNA1{[moe](T)[sp].[moe](G)p.[moe](G)p.[moe]([m5C])p.[moe](A)[sp].d([m5C])[sp].d(T)[sp].d(T)[sp].d(T)[sp].d([m5C])[sp].d(T)[sp].d(T)[sp].d(T)[sp].d(T)[sp].d(T)[sp].[moe](A)p.[moe](T)p.[moe](T)[sp].[moe](T)}$$$$ (last 3' nucleoside missing)” yielded a 3 h FOB score of 0 score 0-7.

In turn, “RNA1{[moe](T)[sp].[moe](G)p.[moe](G)p.[moe]([m5C])p.[moe](A)p.[moe]([m5C])p.d(T)[sp].d(T)[sp].d(T)[sp].d([m5C])[sp].d(T)[sp].d(T)[sp].d(T)[sp].d(T)[sp].d(T)[sp].d(A)[sp].[moe](T)p.[moe](T)[sp].[moe](T)}$$$$ (last 3' nucleoside missing)” showed a 3 h FOB score of 0.25 score 0-7.

“RNA1{[moe](T)[sp].[moe](G)p.[moe](G)p.[moe]([m5C])p.[moe](T)[sp].d(T)[sp].d(A)[sp].d([m5C])[sp].d(T)[sp].d([m5C])[sp].d(G)[sp].d(G)[sp].d([m5C])[sp].d(T)[sp].d(T)[sp].[moe](G)p.[moe](T)p.[moe](T)[sp].[moe]([m5C])}$$$$ (last 3' nucleoside missing)” had a 3 h FOB score of 3.75 score 0-7.

Turning to “RNA1{[moe](T)[sp].[moe](G)p.[moe](T)p.[moe](A)p.[moe](G)[sp].d(A)[sp].d(A)[sp].d(G)[sp].d([m5C])[sp].d(A)[sp].d(T)[sp].d(T)[sp].d(G)[sp].d(T)[sp].d(A)[sp].[moe]([m5C])p.[moe]([m5C])p.[moe](T)[sp].[moe]([m5C])}$$$$ (last 3' nucleoside missing)”, the 3 h FOB score was determined as 4.5 score 0-7.

On to “RNA1{[moe](T)[sp].[moe](G)p.[moe](T)p.[moe](G)p.[moe](A)[sp].d([m5C])[sp].d(A)[sp].d(A)[sp].d(T)[sp].d(A)[sp].d(T)[sp].d(T)[sp].d(T)[sp].d(A)[sp].d([m5C])[sp].[moe](T)p.[moe]([m5C])p.[moe](T)[sp].[moe](T)}$$$$ (last 3' nucleoside missing)”, for which the 3 h FOB score was 2.25 score 0-7.

Turning to “RNA1{[moe](T)[sp].[moe](G)p.[moe](T)p.[moe](G)p.[moe](T)[sp].d([m5C])[sp].d(A)[sp].d(T)[sp].d(A)[sp].d(A)[sp].d(T)[sp].d(T)[sp].d(T)[sp].d(T)[sp].d([m5C])[sp].[moe](T)p.[moe](T)p.[moe](A)[sp].[moe](G)}$$$$ (last 3' nucleoside missing)”, the 3 h FOB score turned out to be 1 score 0-7.

As for “RNA1{[moe](T)[sp].[moe](G)p.[moe](T)p.[moe](G)p.[moe]([m5C])[sp].d(T)[sp].d(T)[sp].d(A)[sp].d(T)[sp].d(T)[sp].d(A)[sp].d(T)[sp].d(T)[sp].d([m5C])[sp].d(A)[sp].[moe](T)p.[moe](G)p.[moe](T)[sp].[moe](T)}$$$$ (last 3' nucleoside missing)”, the 3 h FOB score amounted to 0 score 0-7.

With “RNA1{[moe](T)[sp].[moe](G)p.[moe](T)p.[moe](G)p.[moe]([m5C])[sp].d(T)[sp].d(T)[sp].d(T)[sp].d(T)[sp].d([m5C])[sp].d([m5C])[sp].d(T)[sp].d(T)[sp].d(T)[sp].d([m5C])[sp].[moe](A)p.[moe](G)p.[moe](A)[sp].[moe](T)}$$$$ (last 3' nucleoside missing)”, the 3 h FOB score came out at 0.75 score 0-7.

“RNA1{[moe](T)[sp].[moe](G)p.[moe](T)p.[moe](T)p.[moe](A)[sp].d(T)[sp].d(T)[sp].d(T)[sp].d([m5C])[sp].d([m5C])[sp].d(T)[sp].d([m5C])[sp].d(T)[sp].d(G)[sp].d(T)[sp].[moe](G)p.[moe]([m5C])p.[moe](T)[sp].[moe](T)}$$$$ (last 3' nucleoside missing)” registered a 3 h FOB score of 3.75 score 0-7.

In turn, “RNA1{[moe](T)[sp].[moe](G)p.[moe](T)p.[moe](T)p.[moe](T)[sp].d(G)[sp].d(T)[sp].d(T)[sp].d(T)[sp].d([m5C])[sp].d(T)[sp].d(T)[sp].d([m5C])[sp].d([m5C])[sp].d(A)[sp].[moe](T)p.[moe](T)p.[moe](G)[sp].[moe]([m5C])}$$$$ (last 3' nucleoside missing)” registered a 3 h FOB score of 1 score 0-7.

For “RNA1{[moe](T)[sp].[moe](G)p.[moe](T)p.[moe]([m5C])p.[moe](A)[sp].d(G)[sp].d(T)[sp].d(T)[sp].d(T)[sp].d(T)[sp].d(T)[sp].d([m5C])[sp].d([m5C])[sp].d([m5C])[sp].d([m5C])[sp].[moe](A)p.[moe]([m5C])p.[moe](A)[sp].[moe](T)}$$$$ (last 3' nucleoside missing)”, the 3 h FOB score came to 0 score 0-7.

As for “RNA1{[moe](T)[sp].[moe](G)p.[moe](T)p.[moe]([m5C])p.[moe](A)p.[moe](G)p.d(T)[sp].d(T)[sp].d(T)[sp].d(T)[sp].d(T)[sp].d([m5C])[sp].d([m5C])[sp].d([m5C])[sp].d([m5C])[sp].d(A)[sp].[moe]([m5C])p.[moe](A)[sp].[moe](T)}$$$$ (last 3' nucleoside missing)”, the 3 h FOB score came out at 0.5 score 0-7.

In turn, “RNA1{[moe](T)[sp].[moe](G)p.[moe](T)p.[moe]([m5C])p.[moe](A)p.d(G)[sp].d(T)[sp].d(T)[sp].d(T)[sp].d(T)[sp].d(T)[sp].d([m5C])[sp].d([m5C])[sp].d([m5C])[sp].[moe]([m5C])[sp].[moe](A)p.[moe]([m5C])p.[moe](A)}$$$$ (last 3' nucleoside missing)” returned a 3 h FOB score of 0 score 0-7.

“RNA1{[moe](T)[sp].[moe](G)p.[moe](T)p.[moe]([m5C])p.[moe](A)p.d(T)[sp].d(A)[sp].d(A)[sp].d(T)[sp].d(T)[sp].d(T)[sp].d(T)[sp].d([m5C])[sp].d(T)[sp].[moe](T)p.[moe](A)p.[moe](G)[sp].[moe]([m5C])}$$$$ (last 3' nucleoside missing)”: the 3 h FOB score is 0 score 0-7.

The substance “RNA1{[moe](T)[sp].[moe](G)p.[moe](T)p.[moe]([m5C])p.d(A)[sp].d(G)[sp].d(T)[sp].d(T)[sp].d(T)[sp].d(T)[sp].d(T)[sp].d([m5C])[sp].d([m5C])[sp].d([m5C])[sp].[moe]([m5C])p.[moe](A)p.[moe]([m5C])p.[moe](A)[sp].[moe](T)}$$$$ (last 3' nucleoside missing)” had a 3 h FOB score of 0 score 0-7.

“RNA1{[moe](T)[sp].[moe](G)p.[moe]([m5C])p.[moe](A)p.[moe]([m5C])[sp].d(A)[sp].d([m5C])[sp].d(T)[sp].d(G)[sp].d(A)[sp].d([m5C])[sp].d([m5C])[sp].d(A)[sp].d(T)[sp].d(T)[sp].[moe](T)p.[moe](T)p.[moe](T)[sp].[moe](T)}$$$$ (last 3' nucleoside missing)” yielded a 3 h FOB score of 1 score 0-7.

The substance “RNA1{[moe](T)[sp].[moe](G)p.[moe]([m5C])p.[moe](T)p.[moe](T)[sp].d(A)[sp].d(T)[sp].d(T)[sp].d(A)[sp].d(T)[sp].d(T)[sp].d([m5C])[sp].d(A)[sp].d(T)[sp].d(G)[sp].[moe](T)p.[moe](T)p.[moe]([m5C])[sp].[moe](T)}$$$$ (last 3' nucleoside missing)” returned a 3 h FOB score of 0 score 0-7.

Regarding “RNA1{[moe](T)[sp].[moe](G)p.[moe]([m5C])p.[moe]([m5C])p.[moe](A)[sp].d([m5C])[sp].d(A)[sp].d(T)[sp].d(A)[sp].d(T)[sp].d(A)[sp].d(G)[sp].d(G)[sp].d(G)[sp].d(T)[sp].[moe]([m5C])p.[moe]([m5C])p.[moe](T)[sp].[moe](T)}$$$$ (last 3' nucleoside missing)”, the 3 h FOB score worked out at 3 score 0-7.

Consider “RNA1{[moe](T)[sp].[moe](T)p.[moe](A)p.[moe]([m5C])p.[moe](T)[sp].d([m5C])[sp].d(G)[sp].d(G)[sp].d([m5C])[sp].d(T)[sp].d(T)[sp].d(G)[sp].d(T)[sp].d(T)[sp].d([m5C])[sp].[moe]([m5C])p.[moe](A)p.[moe]([m5C])[sp].[moe](T)}$$$$ (last 3' nucleoside missing)”, for which the 3 h FOB score came out at 2.5 score 0-7.

“RNA1{[moe](T)[sp].[moe](T)p.[moe](G)p.[moe](T)p.[moe](G)[sp].d(A)[sp].d([m5C])[sp].d(A)[sp].d(A)[sp].d(T)[sp].d(A)[sp].d(T)[sp].d(T)[sp].d(T)[sp].d(A)[sp].[moe]([m5C])p.[moe](T)p.[moe]([m5C])[sp].[moe](T)}$$$$ (last 3' nucleoside missing)”: the 3 h FOB score is 0 score 0-7.

For the substance “RNA1{[moe](T)[sp].[moe](T)p.[moe](G)p.[moe]([m5C])p.[moe](A)[sp].d(G)[sp].d(G)[sp].d(T)[sp].d(A)[sp].d(A)[sp].d(G)[sp].d(T)[sp].d(T)[sp].d([m5C])[sp].d(T)[sp].[moe]([m5C])p.[moe](A)p.[moe](G)[sp].[moe](G)}$$$$ (last 3' nucleoside missing)”, the 3 h FOB score was 5.25 score 0-7.

As for “RNA1{[moe](T)[sp].[moe](T)p.[moe](T)p.[moe](A)p.[moe]([m5C])[sp].d(T)[sp].d(T)[sp].d(T)[sp].d(T)[sp].d([m5C])[sp].d(A)[sp].d(G)[sp].d([m5C])[sp].d(T)[sp].d(G)[sp].[moe]([m5C])p.[moe]([m5C])p.[moe](T)[sp].[moe](T)}$$$$ (last 3' nucleoside missing)”, the 3 h FOB score was found to be 6 score 0-7.

The substance “RNA1{[moe](T)[sp].[moe](T)p.[moe](T)p.[moe](G)p.[moe](A)[sp].d(T)[sp].d(T)[sp].d(T)[sp].d([m5C])[sp].d(A)[sp].d(A)[sp].d(G)[sp].d(T)[sp].d([m5C])[sp].d([m5C])[sp].[moe]([m5C])p.[moe](A)p.[moe](G)[sp].[moe](A)}$$$$ (last 3' nucleoside missing)” returned a 3 h FOB score of 2.25 score 0-7.

“RNA1{[moe](T)[sp].[moe](T)p.[moe](T)p.[moe](G)p.[moe](G)[sp].d(A)[sp].d(G)[sp].d(G)[sp].d([m5C])[sp].d(T)[sp].d([m5C])[sp].d(T)[sp].d(T)[sp].d(T)[sp].d(T)[sp].[moe](A)p.[moe](G)p.[moe](G)[sp].[moe](T)}$$$$ (last 3' nucleoside missing)” registered a 3 h FOB score of 4 score 0-7.
